Data reported in patent publication US20120277312A1, “Ethylgallate and Related Compounds as a Treatment for Sepsis and Septic Shock” (priority 2009, published 2012).

Tests used:
[1] = test system: lysozyme-induced myocardial depression; test: Lysozyme-induced myocardial depression, in-vitro experiments; settings: previous in-vitro experiments
From the text: Usually, when one increases the blood pressure in septic shock, there is the potential for stroke-volume and cardiac out to fall, since the heart has to pump against a greater load. Particularly, in septic shock, cardiac function is depressed.

catalase = biological target: T1, catalase (Homo sapiens, UniProt P04040); test: Conversion of catalase to compound I (wave-scan spectroscopy); assay type: biochemical
T1 sequence (P04040 2-527 limits assumed): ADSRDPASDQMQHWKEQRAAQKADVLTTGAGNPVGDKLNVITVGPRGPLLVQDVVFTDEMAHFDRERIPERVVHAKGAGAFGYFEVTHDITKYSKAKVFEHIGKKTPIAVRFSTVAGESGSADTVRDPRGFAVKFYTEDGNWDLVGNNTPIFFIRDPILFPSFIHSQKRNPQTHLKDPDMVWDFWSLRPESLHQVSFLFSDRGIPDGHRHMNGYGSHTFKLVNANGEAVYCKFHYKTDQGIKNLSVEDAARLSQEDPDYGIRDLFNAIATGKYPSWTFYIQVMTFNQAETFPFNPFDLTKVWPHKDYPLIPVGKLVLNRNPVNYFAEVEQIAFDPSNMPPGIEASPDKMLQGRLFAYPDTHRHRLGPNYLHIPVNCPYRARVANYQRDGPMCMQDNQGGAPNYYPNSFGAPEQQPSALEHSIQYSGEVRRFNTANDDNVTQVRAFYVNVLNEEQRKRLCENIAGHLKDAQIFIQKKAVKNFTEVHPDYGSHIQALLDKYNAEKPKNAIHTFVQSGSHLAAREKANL
From the text: This generation appears to involve the mechanism described by Wentworth et al in which proteins can utilize water as a catalyst to generate H2O2 (12) Once formed by lysozyme, H2O2 then reacts with intrinsic catalase to form a species of catalase termed Compound I (2) Compound I then acts to generate cyclic-guanosine monophosphate which in turn causes vasodilation. […] These as well as other mechanisms may account for the efficacy of ethyl-gallate treatment in septic shock.

[2] = test system: POX-induced vasodilation in carotid and superior mesenteric arterial preparations; test: Peroxacetic acid (POX)-induced vasodilation in carotid and superior mesenteric arterial preparations; parameters: species or system canine
From the text: POX is a hydroperoxide (slightly different from the molecule of hydrogen peroxide) that also may be released in septic shock by macrophages and inflammatory cells. […] However, the pathway by which POX caused vasodilation is much different than that caused by lysozyme. […] To some extent, therefore, the improvement in hemodynamics previously observed when ethyl-gallate was infused in our in-vivo study could have also been related to ethyl-gallate's inhibition of the POX pathway in addition to ethyl-gallate's inhibitory-effect on lysozyme mediated pathways.
The only similarity found between lysozyme and POX is that POX's mechanism of action is also independent of the endothelium and nitric oxide formation, since we could not prevent POX's vasodilatory effect by removal of the endothelium or by nitric oxide inhibition. In contrast to lysozyme, POX seems to cause vasodilation is by activation of an enzyme in the vascular tissue called prostaglandin H synthase (PHS). PHS has an important mechanism of action, in that after activation by hydroperoxides (such as POX), it can in turn activate the cyclooxygenase pathway leading to vasodilation.

SMILES: CCOC(=O)c1cc(O)c(O)c(O)c1 [ethyl gallate]
- prevention of lysozyme-induced myocardial depression [1]: prevents
- inhibition of degradation of catalase to compound I (catalase): can inhibit
- inhibition of vasodilation caused by POX [2]: inhibited
